In PubChem BioAssay (NCI):
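96-well plates; 48 h exposure; 5 concentrations. Endpoints by linear interpolation between flanking doses. Not reached: highest tested concentration assigned. GI50 is the concentration that inhibits growth by half. TGI: concentration producing complete growth inhibition.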

Experiments:
Assay in all cases: NCI-60 cell line screen, 48 h; in the data active = GI50 below about 0.43 µM; inactive = the rest
[1] = test system: SNB-75 CNS
[2] = test system: UACC-62 melanoma
[3] = test system: LOX IMVI melanoma
[4] = test system: A549 NSCLC
[5] = test system: DU-145 prostate
[6] = test system: CAKI-1 renal
[7] = test system: T-47D breast
[8] = test system: HS 578T breast
[9] = test system: SF-295 CNS
[10] = test system: U251 CNS
[11] = test system: NCI-H226 lung
[12] = test system: A498 renal
[13] = test system: OVCAR-3 ovarian
[14] = test system: IGROV1 ovarian
[15] = test system: SF-539 CNS
[16] = test system: EKVX NSCLC
[17] = test system: SW-620 colon
[18] = test system: ACHN renal
[19] = test system: SF-268 CNS
[20] = test system: UACC-257 melanoma
[21] = test system: SK-OV-3 ovarian
[22] = test system: NCI-H23 lung
[23] = test system: RXF 393 renal
[24] = test system: UO-31 renal
[25] = test system: MDA-MB-435
[26] = test system: OVCAR-4 ovarian
[27] = test system: SK-MEL-28 melanoma
[28] = test system: KM12 colon
[29] = test system: 786-0 renal
[30] = test system: M14 melanoma
[31] = test system: NCI-H460 lung
[32] = test system: SK-MEL-2 melanoma
[33] = test system: OVCAR-8 ovarian
[34] = test system: K-562 leukemia
[35] = test system: SN12C renal
[36] = test system: MCF7 breast
[37] = test system: NCI-H522 lung
[38] = test system: OVCAR-5 ovarian
[39] = test system: BT-549 breast
[40] = test system: COLO 205 colon
[41] = test system: TK-10 renal
[42] = test system: PC-3 prostate
[43] = test system: HT29 colon
[44] = test system: SNB-19 CNS
[45] = test system: NCI/ADR-RES ovarian
[46] = test system: MALME-3M melanoma
[47] = test system: HCT-116 colon
[48] = test system: SK-MEL-5 melanoma
[49] = test system: HOP-62 NSCLC
[50] = test system: HCC-2998 colon
[51] = test system: HCT-15 colon
[52] = test system: MDA-MB-231 breast

O=C(O)CNC(=O)C(CS)Cc1ccccc1 (centres undefined)
> 25 µM: TGI [1] | TGI [2] | TGI [3] | TGI [4] | TGI [5] | TGI [6] | TGI [7] | TGI [8] | TGI [9] | TGI [10] | TGI [11] | TGI [12] | TGI [13] | TGI [14] | TGI [15] | TGI [16] | TGI [17] | TGI [18] | TGI [19] | TGI [20] | TGI [21] | TGI [22] | TGI [23] | TGI [24] | TGI [25] | TGI [26] | TGI [27] | TGI [28] | TGI [29] | TGI [30] | TGI [31] | TGI [32] | TGI [33] | TGI [34] | TGI [35] | TGI [36] | TGI [37] | TGI [38] | TGI [39] | TGI [40] | TGI [41] | TGI [42] | TGI [43] | TGI [44] | TGI [45] | TGI [46] | TGI [47] | TGI [48] | TGI [49] | TGI [50] | TGI [51] | TGI [52]
inactive: GI50 [1] > 25 µM | GI50 [2] > 25 µM | GI50 [3] > 25 µM | GI50 [4] > 25 µM | GI50 [5] > 25 µM | GI50 [6] > 25 µM | GI50 [7] > 25 µM | GI50 [8] > 25 µM | GI50 [9] > 25 µM | GI50 [10] > 25 µM | GI50 [11] > 25 µM | GI50 [12] > 25 µM | GI50 [13] > 25 µM | GI50 [14] > 25 µM | GI50 [15] > 25 µM | GI50 [16] > 25 µM | GI50 [17] > 25 µM | GI50 [18] > 25 µM | GI50 [19] > 25 µM | GI50 [20] > 25 µM | GI50 [21] > 25 µM | GI50 [22] > 25 µM | GI50 [23] 0.79 µM | GI50 [24] > 25 µM | GI50 [25] > 25 µM | GI50 [26] > 25 µM | GI50 [27] > 25 µM | GI50 [28] > 25 µM | GI50 [29] > 25 µM | GI50 [30] > 25 µM | GI50 [31] > 25 µM | GI50 [32] > 25 µM | GI50 [33] > 25 µM | GI50 [34] > 25 µM | GI50 [35] > 25 µM | GI50 [36] > 25 µM | GI50 [37] > 25 µM | GI50 [38] > 25 µM | GI50 [39] > 25 µM | GI50 [40] > 25 µM | GI50 [41] > 25 µM | GI50 [42] > 25 µM | GI50 [43] > 25 µM | GI50 [44] > 25 µM | GI50 [45] > 25 µM | GI50 [46] > 25 µM | GI50 [47] > 25 µM | GI50 [48] > 25 µM | GI50 [49] > 25 µM | GI50 [50] > 25 µM | GI50 [51] > 25 µM | GI50 [52] > 25 µM
